Source: patent publication US20240083933A1, “DISACCHARIDES FOR TREATING BONE DISEASES” (UNIVERSITE DE PICARDIE JULES VERNE, priority 2020, published 2024)

Tests used:
[1] = system: MC3T3-E1 cells; assay: Calcium assay (pro-calcifying activity) on mouse pre-osteoblastic cells; assay type: cell-based; details: for increase in calcification relative to the mineralizing medium: MC3T3-E1, 25 days
Procedure: FIG. 1 represents the calcium dosage in the MC3T3-E1 culture medium (in […] of protein per well) after 9 days of exposure of these cells to 4 mM of Pi ([…]) (control+Pi) and 4 mM of Pi in the presence of 30 μM of each of the compounds referenced DP2SNA, DP2NA, DP2K and DP2S;
For all experiments, a mouse pre-osteoblastic cell line (MC3T3-E1, ATCC) and human primary osteoblastic cells (HOb, Promocell) were used. The mouse pre-osteoblastic cells were cultured in 75 cm^2 flasks, containing 15 mL of α-MEM medium (M4526, SIGMA) and 10% fetal calf serum (FCS), containing 1% Penicillin/Streptomycin antibiotics and 1% glutamine. Similarly, human HOb cells were cultured in 75 cm 2 flasks containing 15 mL of proliferation medium (Human Osteoblast Proliferation Medium, PromoCell). The cells are maintained in the oven at 37° C., with 5% CO2 and 90% humidity. The medium was changed every three days.
MC3T3-E1 cells were seeded in 6-well plates at 63,700 cells/well to be treated in order to extract RNA or for alkaline phosphatase enzymatic activity assay and in 48-well plates for the calcium assay at 5250 cells/well. The HOb cells were seeded at 182,000 cells/well in 6-well plates for the extraction of RNA or for the alkaline phosphatase enzymatic activity assay; at 15,000 cells/well in 48-well plates for the calcium assay; at 10,000 cells/well in 48-well plates for the MTT test or the WST-1 test and at 100,000 cells/well in 6-well plates for the protein extraction or for the fluorescence.
In order to induce the mineralization, the MC3T3-E1 cells were treated with α-MEM medium containing 5% FCS to which 10 mM of β-glycerophosphate and 50 μg/mL of ascorbic acid are added. The HOb cells were treated with the “Osteoblast mineralization medium” (Promocell). […] After filtration, the cells were treated with the respective media (500 μL per well of the 48-well plate and 2 mL per well of the 6-well plate).
The release of calcium in the culture medium of mouse pre-osteoblastic cells (MC3T3-E1) has been studied.
An increase in calcification was observed, relative to the mineralizing medium (FIG. 2), in the presence of DP2R0 at 15 μM (40±2%), at 30 μM (28±18%) and at 50 μM (40±28%), and DP2NA at 15 μM (15±14%), at 30 μM (33±12%) and at 50 μM (10±19%).

[2] = system: bone defects in the skull of rats; assay: Cranial bone defect model with implanted support; assay type: in vivo; design: key to BMD / BV/TV: =: no difference; N/A: not applicable; *p ≤ 0.05; **p ≤ 0.01; ***p ≤ 0.001
Procedure: The Sprague-Dawley rats are provided by Janvier Labs (Le Genest-Saint-Isle, France) and housed in the PLATAN animal facility of the UPJV. The rats were maintained under a 12-hour day-night cycle, at a temperature of 22±2° C. and 50% humidity.
In order to assess the osteoinductive capacity of the disaccharide via the acceleration of the phenomenon of bone reconstruction and to determine the concentration of the optimal DP2 molecule, and the nature of the most adapted support under the physiological conditions of the fracture consolidation operation (inflammatory reaction, cellular activity), 2 bone defects were made in the skull of rats.
Three different types of supports were tested and two different concentrations of DP2.
In order to reduce the number of used rats, two bone defects were made per rat; one defect was left blank and was used as an internal control for each rat. Thus, the support-only group is considered the control of the experiment. […] For the support-only condition, the latter is mixed with sterile saline solution.
After being assigned to one of the 12 groups shown above, the rat was anesthetized using IsoVet (isoflurane) in the mask (5% in the induction and 2 to 3% in maintenance dose). After 5 min, a nociception test was performed by pinching the paw or tail of the animal to check the effectiveness of the anesthesia. On the workstation, a shaving and a disinfection with vetedine were then carried out next to the incision.
A local anesthesia was also carried out with 7 mg/kg of 2% lidocaine (20 mg/mL) diluted to 5 mg/ml.
On the workstation, the incision of the skin with a 15 blade cold scalpel along the midline was performed, followed by the detachment of the subcutaneous tissues. Then, the incision along the midline and the lifting and lateral displacement of the periosteum were made. […] Saline solution was used during the milling steps. The implantation of the support, depending on the group, on the left side was made; the right side, without support, was used as a control to assess the effect of the lesion and the natural repair processes without the presence of support. The periosteum was put back in place and sutured with 7/0 skin suture. The skin was also put back in place and closed with 4/0 skin suture.
The rat was injected with buprenorphine at a dose of 0.05 mg/kg subcutaneously as an analgesic. After awakening, the rat was returned to its conventional housing conditions, by putting 1 rat per cage. The animals were supervised daily and animal welfare monitoring was carried out.

[3] = Bio-oss support + DP2R2 3 mM vs Bio-oss only, D 14
[4] = Bio-oss support + DP2R2 3 mM vs Bio-oss only, D 29
[5] = Bio-oss support + DP2R2 3 mM vs Bio-oss only, D 63
[6] = Bio-oss support + DP2R2 3 mM vs Bio-oss only, D 91
[7] = Bio-oss support + DP2R2 9 mM vs Bio-oss only, D 14
[8] = Bio-oss support + DP2R2 9 mM vs Bio-oss only, D 29
[9] = Bio-oss support + DP2R2 9 mM vs Bio-oss only, D 63
[10] = Bio-oss support + DP2R2 9 mM vs Bio-oss only, D 91
[11] = Collagen support + DP2R2 3 mM vs Collagen only, D 14
[12] = Collagen support + DP2R2 3 mM vs Collagen only, D 29
[13] = Collagen support + DP2R2 3 mM vs Collagen only, D 63
[14] = Collagen support + DP2R2 3 mM vs Collagen only, D 91
[15] = Collagen support + DP2R2 9 mM vs Collagen only, D 14
[16] = Collagen support + DP2R2 9 mM vs Collagen only, D 29
[17] = Collagen support + DP2R2 9 mM vs Collagen only, D 63
[18] = Collagen support + DP2R2 9 mM vs Collagen only, D 91
[19] = MBCP support + DP2R2 3 mM vs MBCP only, D 14
[20] = MBCP support + DP2R2 3 mM vs MBCP only, D 29
[21] = MBCP support + DP2R2 3 mM vs MBCP only, D 63
[22] = MBCP support + DP2R2 3 mM vs MBCP only, D 91
[23] = MBCP support + DP2R2 9 mM vs MBCP only, D 14
[24] = MBCP support + DP2R2 9 mM vs MBCP only, D 29
[25] = MBCP support + DP2R2 9 mM vs MBCP only, D 63
[26] = MBCP support + DP2R2 9 mM vs MBCP only, D 91

Q: How did the “production of calcium by the MC3T3-E1 cells (calcium dosage in culture medium)” value ([1]; 9 days, 4 mM Pi, 30 μM compound, vs control+Pi (FIG. 1)) turn out when `CCCO[C@H]1OC(CO)[C@@H](O[C@@H]2OC(CO)[C@@H](O)C(O)C2NC(C)=O)C(O)C1OC(C)=O` (stereo partly drawn) [DP2, n-propyl, 2-O-acetyl-α-D-Glucopyranoside, 4-O-(2-acetamido-2-deoxy-β-D-glucopyranosyl)] was run?
A: increase the production of calcium

Q: What about the “increase in calcification relative to the mineralizing medium” value ([1]; 15 μM) of the same compound?
A: 40±2%

Q: And the “increase in calcification relative to the mineralizing medium” value ([1]; 30 μM)?
A: 28±18%

Q: What about the “increase in calcification relative to the mineralizing medium” value ([1]; 50 μM) of the same compound?
A: 40±28%

Q: And the BMD [2, 3]?
A: =

Q: What about the BV/TV [2, 3] of the same compound?
A: =

Q: What about the BMD [2, 4] of the same compound?
A: =

Q: What about the BV/TV [2, 4] of the same compound?
A: =

Q: And the BMD [2, 5]?
A: =

Q: And the BV/TV [2, 5]?
A: =

Q: What about the BMD [2, 6] of the same compound?
A: =

Q: What about the BV/TV [2, 6] of the same compound?
A: =

Q: And the BMD [2, 7]?
A: =

Q: And the BV/TV [2, 7]?
A: =

Q: And the BMD [2, 8]?
A: =

Q: What about the BV/TV [2, 8] of the same compound?
A: =

Q: And the BMD [2, 9]?
A: =

Q: And the BV/TV [2, 9]?
A: =

Q: What about the BMD [2, 10] of the same compound?
A: =

Q: What about the BV/TV [2, 10] of the same compound?
A: =

Q: And the BMD [2, 11]?
A: ↑*

Q: What about the BV/TV [2, 11] of the same compound?
A: =

Q: And the BMD [2, 12]?
A: =

Q: And the BV/TV [2, 12]?
A: =

Q: And the BMD [2, 13]?
A: =

Q: What about the BV/TV [2, 13] of the same compound?
A: =

Q: What about the BMD [2, 14] of the same compound?
A: =

Q: And the BV/TV [2, 14]?
A: =

Q: And the BMD [2, 15]?
A: =

Q: And the BV/TV [2, 15]?
A: =

Q: What about the BMD [2, 16] of the same compound?
A: =

Q: And the BV/TV [2, 16]?
A: =

Q: And the BMD [2, 17]?
A: =

Q: What about the BV/TV [2, 17] of the same compound?
A: =

Q: And the BMD [2, 18]?
A: =

Q: What about the BV/TV [2, 18] of the same compound?
A: =

Q: And the BMD [2, 19]?
A: =

Q: What about the BV/TV [2, 19] of the same compound?
A: =

Q: And the BMD [2, 20]?
A: ↑*

Q: And the BV/TV [2, 20]?
A: =

Q: And the BMD [2, 21]?
A: ↑*

Q: And the BV/TV [2, 21]?
A: =

Q: What about the BMD [2, 22] of the same compound?
A: ↑***

Q: What about the BV/TV [2, 22] of the same compound?
A: =

Q: And the BMD [2, 23]?
A: =

Q: What about the BV/TV [2, 23] of the same compound?
A: =

Q: What about the BMD [2, 24] of the same compound?
A: ↑*

Q: And the BV/TV [2, 24]?
A: =

Q: What about the BMD [2, 25] of the same compound?
A: ↑***

Q: What about the BV/TV [2, 25] of the same compound?
A: =

Q: And the BMD [2, 26]?
A: ↑*

Q: And the BV/TV [2, 26]?
A: =

Q: And the bone mineralization ([2]; collagen+DP2 [3 mM], D14)?
A: increases the bone mineralization

Q: And the “in-vivo toxic effect (survival, infection, hematoma, necrosis at defect sites)” value ([2]; rats, 3 months after implantation)?
A: does not have any in-vivo toxic effect

Q: What about the “bone mineralization relative MBCP alone” value ([2]; the 2 MBCP+DP2 groups (3 mM, 9 mM), from D29 post-surgery) of the same compound?
A: increase the bone mineralization
